Laboratory results as given in ChEMBL document CHEMBL1158828, “(+)-Myristinins A and D from Knema elegans, which inhibit DNA polymerase beta and cleave DNA” (J Nat Prod, 2005).
The source made the active and inactive calls. The rule behind the calls is not given here.

What was measured:
[1] = Potentiation of bleomycin-induced cytotoxicity against mouse P388D1 cells assessed as reduction in cell viability at 9 uM after 6 hrs by trypan blue exclusion test; format: functional
[2] = target: DNA polymerase beta (Rattus norvegicus) (UniProt P06766); assay: Activity of rat recombinant DNA polymerase beta using variable levels of dNTP concentration
DNA polymerase beta [3] = target: T1, DNA polymerase beta (Rattus norvegicus, UniProt P06766); assay: Inhibition of rat recombinant DNA polymerase beta in absence of bovine serum albumin
Escherichia coli [4] = assay: Induction of strand scission activity in Escherichia coli supercoiled pSP64 DNA assessed as relaxation of DNA after 1 hr by agarose gel electrophoresis in presence of Cu2+
DNA polymerase beta [5] = target: T1, DNA polymerase beta; assay: Activity of rat recombinant DNA polymerase beta using variable levels of DNA template-primer
Escherichia coli [6] = assay: Induction of strand scission activity in Escherichia coli supercoiled pSP64 DNA assessed as relaxation of DNA at 10 µM by agarose gel electrophoresis in presence of Cu2+
DNA polymerase beta [7] = target: T1, DNA polymerase beta; assay: Inhibition of rat recombinant DNA polymerase beta in presence of bovine serum albumin

Compound | Activity [1] | Kii [2] | Kis [2] | IC50 (DNA polymerase beta [3]) | Activity (Escherichia coli [4]) | Ki (DNA polymerase beta [5]) | Activity (Escherichia coli [6]) | IC50 (DNA polymerase beta [7])
CCCCCCCCCCCC(=O)c1c(O)cc(O)c([C@@H]2C[C@@H](c3ccc(O)cc3)Oc3cc(O)ccc32)c1O | 30% | 4.3 µM | 8.2 µM | 2.7 µM | Dose-dependent effect | 11 µM | Active | 12 µM
O=C(CCCCCCCCc1ccccc1)c1c(O)cc(O)c([C@@H]2C[C@@H](c3ccc(O)cc3)Oc3cc(O)ccc32)c1O | 30% | 0.8 µM | 23 µM | 1.2 µM | Dose-dependent effect | 12 µM | Active | 4.3 µM
